Activity calls are given as the source filed them. Cut-off read from the data, not from the text of the source, for most assays here: actives have a measured Kd and inactives only a lower limit.
Columns and labels:
Adenosine kinase = Adenosine kinase (Homo sapiens, UniProt P55263)
[1] = target: Adenylate kinase 2, mitochondrial (Homo sapiens, UniProt P54819)
[2] = target: Mitotic checkpoint serine/threonine-protein kinase BUB1 (Homo sapiens, UniProt O43683)
[3] = target: Calcium/calmodulin-dependent protein kinase type II subunit delta (Homo sapiens, UniProt Q13557)
[4] = target: Cyclin-dependent kinase 3 (Homo sapiens, UniProt Q00526)
[5] = target: Cyclin-dependent kinase 5 (Homo sapiens, UniProt Q00535)
[6] = target: T1, Serine/threonine-protein kinase Chk1 (Homo sapiens, UniProt O14757)
T1 sequence (O14757 whole entry): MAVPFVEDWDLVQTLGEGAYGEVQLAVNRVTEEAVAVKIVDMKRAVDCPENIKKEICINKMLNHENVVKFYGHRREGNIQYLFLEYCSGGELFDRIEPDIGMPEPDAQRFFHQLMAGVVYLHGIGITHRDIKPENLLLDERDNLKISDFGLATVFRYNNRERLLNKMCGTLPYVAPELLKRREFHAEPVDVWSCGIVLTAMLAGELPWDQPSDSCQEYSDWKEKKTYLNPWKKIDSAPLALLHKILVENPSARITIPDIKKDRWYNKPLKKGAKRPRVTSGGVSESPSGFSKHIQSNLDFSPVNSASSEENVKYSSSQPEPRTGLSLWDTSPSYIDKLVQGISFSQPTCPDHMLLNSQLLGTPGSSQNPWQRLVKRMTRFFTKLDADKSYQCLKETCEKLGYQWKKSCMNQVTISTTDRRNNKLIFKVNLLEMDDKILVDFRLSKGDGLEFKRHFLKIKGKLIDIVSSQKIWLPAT

[7] = target: Glycogen synthase kinase-3 alpha (Homo sapiens, UniProt P49840)
LIM domain kinase 1 = LIM domain kinase 1 (Homo sapiens, UniProt P53667)
LIM domain kinase 2 = LIM domain kinase 2 (Homo sapiens, UniProt P53671)
[8] = target: Serine/threonine-protein kinase PAK 4 (Homo sapiens, UniProt O96013)
[9] = target: Serine/threonine-protein kinase SIK3 (Homo sapiens, UniProt Q9Y2K2)
[10] = target: T2, Exosome RNA helicase MTR4 (Homo sapiens, UniProt P42285)
T2 sequence (P42285 whole entry): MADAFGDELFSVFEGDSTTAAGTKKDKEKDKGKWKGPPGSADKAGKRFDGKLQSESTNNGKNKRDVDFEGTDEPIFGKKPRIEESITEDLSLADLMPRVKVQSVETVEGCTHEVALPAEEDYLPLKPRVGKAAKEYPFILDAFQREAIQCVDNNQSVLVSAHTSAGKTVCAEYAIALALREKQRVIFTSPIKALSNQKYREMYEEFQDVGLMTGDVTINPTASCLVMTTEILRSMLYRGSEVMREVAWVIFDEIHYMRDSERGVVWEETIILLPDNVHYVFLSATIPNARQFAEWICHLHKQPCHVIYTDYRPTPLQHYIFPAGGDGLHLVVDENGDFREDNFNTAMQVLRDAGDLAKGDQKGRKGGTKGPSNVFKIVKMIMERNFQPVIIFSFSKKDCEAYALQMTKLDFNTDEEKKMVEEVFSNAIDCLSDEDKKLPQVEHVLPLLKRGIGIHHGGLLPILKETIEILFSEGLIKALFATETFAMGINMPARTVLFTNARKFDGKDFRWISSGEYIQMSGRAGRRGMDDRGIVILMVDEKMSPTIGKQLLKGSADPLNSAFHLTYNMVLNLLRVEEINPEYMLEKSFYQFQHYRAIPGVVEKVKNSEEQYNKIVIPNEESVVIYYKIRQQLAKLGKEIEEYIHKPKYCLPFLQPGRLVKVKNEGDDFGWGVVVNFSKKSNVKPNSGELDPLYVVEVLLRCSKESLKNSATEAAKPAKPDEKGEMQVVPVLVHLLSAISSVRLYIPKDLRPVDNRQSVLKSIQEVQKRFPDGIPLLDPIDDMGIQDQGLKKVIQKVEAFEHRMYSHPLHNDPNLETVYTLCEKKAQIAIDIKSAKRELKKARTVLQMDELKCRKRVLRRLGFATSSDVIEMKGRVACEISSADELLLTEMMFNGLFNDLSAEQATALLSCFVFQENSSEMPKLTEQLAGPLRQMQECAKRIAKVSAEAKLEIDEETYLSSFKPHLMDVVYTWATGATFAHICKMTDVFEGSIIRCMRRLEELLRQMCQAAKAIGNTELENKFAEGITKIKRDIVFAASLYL

[11] = target: Serine/threonine-protein kinase 16 (Homo sapiens, UniProt O75716)
[12] = target: T3, Serine/threonine-protein kinase 3 (Homo sapiens, UniProt Q13188)
T3 sequence (Q13188 whole entry): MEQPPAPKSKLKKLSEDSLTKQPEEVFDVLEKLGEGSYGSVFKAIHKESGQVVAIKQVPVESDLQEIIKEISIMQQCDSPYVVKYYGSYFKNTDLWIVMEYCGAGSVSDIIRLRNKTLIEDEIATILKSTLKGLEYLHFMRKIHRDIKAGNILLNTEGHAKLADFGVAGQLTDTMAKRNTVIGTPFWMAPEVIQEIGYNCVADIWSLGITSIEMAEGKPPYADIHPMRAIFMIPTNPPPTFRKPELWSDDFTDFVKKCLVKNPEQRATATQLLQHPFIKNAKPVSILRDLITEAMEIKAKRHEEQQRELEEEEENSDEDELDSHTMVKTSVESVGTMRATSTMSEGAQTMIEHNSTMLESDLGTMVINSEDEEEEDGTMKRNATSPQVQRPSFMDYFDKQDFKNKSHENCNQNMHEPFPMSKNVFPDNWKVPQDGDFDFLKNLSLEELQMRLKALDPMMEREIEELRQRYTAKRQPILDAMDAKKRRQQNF
Note: in the data inactive means no Kd found up to 30 µM.

Calcium/calmodulin-dependent protein kinase type II subunit delta, sequence (Q13557 whole entry): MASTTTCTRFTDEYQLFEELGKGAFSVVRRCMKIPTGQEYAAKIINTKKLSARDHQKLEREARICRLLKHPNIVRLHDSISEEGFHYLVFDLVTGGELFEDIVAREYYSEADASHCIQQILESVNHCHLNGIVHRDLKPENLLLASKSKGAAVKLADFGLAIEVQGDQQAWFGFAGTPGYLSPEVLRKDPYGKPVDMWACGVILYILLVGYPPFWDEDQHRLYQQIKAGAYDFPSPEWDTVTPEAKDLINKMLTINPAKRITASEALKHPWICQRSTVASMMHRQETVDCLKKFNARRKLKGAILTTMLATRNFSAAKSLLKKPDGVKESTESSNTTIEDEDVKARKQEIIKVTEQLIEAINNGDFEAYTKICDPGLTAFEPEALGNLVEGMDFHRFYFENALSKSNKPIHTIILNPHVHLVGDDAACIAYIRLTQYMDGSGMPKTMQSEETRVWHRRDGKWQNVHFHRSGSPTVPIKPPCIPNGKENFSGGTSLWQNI
LIM domain kinase 1, sequence (P53667 whole entry, the tested form may be a part): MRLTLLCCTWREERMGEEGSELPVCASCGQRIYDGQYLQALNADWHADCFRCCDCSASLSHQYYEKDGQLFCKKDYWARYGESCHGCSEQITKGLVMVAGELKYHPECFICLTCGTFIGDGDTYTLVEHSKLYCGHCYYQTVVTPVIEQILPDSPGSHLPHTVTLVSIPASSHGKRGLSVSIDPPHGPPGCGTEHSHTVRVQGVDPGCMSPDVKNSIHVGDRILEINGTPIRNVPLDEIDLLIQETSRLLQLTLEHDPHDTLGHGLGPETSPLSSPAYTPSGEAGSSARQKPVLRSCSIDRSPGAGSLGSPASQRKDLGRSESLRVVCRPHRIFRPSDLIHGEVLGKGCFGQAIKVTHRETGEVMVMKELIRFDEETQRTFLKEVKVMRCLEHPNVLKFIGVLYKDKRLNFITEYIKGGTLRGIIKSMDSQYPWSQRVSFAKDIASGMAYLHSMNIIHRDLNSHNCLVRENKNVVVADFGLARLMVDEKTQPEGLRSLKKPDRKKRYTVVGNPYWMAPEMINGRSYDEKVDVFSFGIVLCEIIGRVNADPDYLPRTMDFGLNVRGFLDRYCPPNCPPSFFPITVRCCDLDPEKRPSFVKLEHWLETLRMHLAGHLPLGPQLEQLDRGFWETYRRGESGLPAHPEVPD
Serine/threonine-protein kinase PAK 4, sequence (O96013 whole entry): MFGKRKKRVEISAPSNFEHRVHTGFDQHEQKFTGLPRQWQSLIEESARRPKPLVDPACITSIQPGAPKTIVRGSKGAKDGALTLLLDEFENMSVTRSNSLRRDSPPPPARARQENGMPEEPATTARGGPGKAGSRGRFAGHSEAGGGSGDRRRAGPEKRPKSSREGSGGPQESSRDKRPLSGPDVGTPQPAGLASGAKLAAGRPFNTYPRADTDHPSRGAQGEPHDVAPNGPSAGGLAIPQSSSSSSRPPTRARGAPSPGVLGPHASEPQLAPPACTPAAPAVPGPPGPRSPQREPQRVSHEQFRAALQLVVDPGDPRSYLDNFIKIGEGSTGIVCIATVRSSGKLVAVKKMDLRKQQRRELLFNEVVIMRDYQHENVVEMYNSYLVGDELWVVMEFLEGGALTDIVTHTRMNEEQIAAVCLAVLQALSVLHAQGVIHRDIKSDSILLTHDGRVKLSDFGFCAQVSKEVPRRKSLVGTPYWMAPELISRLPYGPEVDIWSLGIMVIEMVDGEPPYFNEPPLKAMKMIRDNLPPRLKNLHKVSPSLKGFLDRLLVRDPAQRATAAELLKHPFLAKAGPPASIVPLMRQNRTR
Mitotic checkpoint serine/threonine-protein kinase BUB1, sequence (O43683 whole entry): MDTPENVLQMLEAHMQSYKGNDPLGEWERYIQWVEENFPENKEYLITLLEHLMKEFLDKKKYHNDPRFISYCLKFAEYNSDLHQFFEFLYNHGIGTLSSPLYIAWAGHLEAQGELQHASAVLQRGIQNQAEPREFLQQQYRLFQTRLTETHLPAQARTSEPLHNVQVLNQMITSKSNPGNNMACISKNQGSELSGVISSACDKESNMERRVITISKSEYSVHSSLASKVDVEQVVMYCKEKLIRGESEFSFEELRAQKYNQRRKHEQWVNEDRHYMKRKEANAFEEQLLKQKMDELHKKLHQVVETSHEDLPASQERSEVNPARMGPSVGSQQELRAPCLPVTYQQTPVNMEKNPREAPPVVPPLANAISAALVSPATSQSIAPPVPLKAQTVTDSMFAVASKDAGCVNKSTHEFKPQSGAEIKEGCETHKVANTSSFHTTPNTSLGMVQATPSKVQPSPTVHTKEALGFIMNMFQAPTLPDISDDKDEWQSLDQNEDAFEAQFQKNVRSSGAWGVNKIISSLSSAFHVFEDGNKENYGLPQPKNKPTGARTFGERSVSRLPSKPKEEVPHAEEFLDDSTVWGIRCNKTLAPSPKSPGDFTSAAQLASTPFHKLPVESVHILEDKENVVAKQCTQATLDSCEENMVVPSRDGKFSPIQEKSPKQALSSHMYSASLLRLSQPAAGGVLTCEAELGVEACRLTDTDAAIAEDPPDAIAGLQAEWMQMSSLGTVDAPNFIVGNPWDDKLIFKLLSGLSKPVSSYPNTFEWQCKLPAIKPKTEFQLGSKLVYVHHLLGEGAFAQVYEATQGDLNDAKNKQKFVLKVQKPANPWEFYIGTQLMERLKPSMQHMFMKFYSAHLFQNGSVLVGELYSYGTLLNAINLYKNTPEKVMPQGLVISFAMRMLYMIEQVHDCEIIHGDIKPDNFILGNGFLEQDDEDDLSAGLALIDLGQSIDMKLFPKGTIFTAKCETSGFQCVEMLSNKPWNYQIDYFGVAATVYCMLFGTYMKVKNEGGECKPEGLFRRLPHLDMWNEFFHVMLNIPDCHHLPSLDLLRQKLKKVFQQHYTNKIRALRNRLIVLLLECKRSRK
Cyclin-dependent kinase 3, sequence (Q00526 whole entry): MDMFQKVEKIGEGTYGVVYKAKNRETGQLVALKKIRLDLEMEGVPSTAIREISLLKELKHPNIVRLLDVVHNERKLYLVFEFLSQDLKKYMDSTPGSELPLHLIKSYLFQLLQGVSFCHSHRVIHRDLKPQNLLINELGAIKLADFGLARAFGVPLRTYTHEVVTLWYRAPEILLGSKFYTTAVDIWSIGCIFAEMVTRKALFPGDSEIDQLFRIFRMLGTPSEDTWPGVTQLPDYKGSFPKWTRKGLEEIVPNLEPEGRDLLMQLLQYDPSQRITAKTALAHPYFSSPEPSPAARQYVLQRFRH
Glycogen synthase kinase-3 alpha, sequence (P49840 whole entry, the tested form may be a part): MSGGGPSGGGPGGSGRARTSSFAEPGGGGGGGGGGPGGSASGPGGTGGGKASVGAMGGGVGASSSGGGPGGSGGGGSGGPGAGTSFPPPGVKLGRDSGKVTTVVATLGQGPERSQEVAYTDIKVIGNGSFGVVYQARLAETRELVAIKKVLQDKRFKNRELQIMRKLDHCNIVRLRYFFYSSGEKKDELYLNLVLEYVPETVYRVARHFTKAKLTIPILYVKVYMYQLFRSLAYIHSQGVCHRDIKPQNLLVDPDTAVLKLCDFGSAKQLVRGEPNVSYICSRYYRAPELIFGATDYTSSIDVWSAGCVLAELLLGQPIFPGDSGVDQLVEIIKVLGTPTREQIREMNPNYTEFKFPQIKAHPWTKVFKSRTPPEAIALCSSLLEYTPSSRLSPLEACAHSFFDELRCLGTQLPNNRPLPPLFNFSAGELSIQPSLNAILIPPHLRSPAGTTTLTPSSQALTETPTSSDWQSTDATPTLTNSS
Serine/threonine-protein kinase 16, sequence (O75716 whole entry): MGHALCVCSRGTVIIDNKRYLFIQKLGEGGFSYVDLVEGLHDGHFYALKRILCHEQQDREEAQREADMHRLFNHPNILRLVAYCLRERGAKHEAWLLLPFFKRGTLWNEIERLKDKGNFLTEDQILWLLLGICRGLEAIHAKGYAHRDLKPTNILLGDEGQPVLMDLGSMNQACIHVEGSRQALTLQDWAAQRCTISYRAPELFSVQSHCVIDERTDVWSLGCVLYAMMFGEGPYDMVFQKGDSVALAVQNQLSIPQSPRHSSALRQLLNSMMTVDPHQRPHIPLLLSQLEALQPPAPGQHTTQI
Cyclin-dependent kinase 5, sequence (Q00535 whole entry): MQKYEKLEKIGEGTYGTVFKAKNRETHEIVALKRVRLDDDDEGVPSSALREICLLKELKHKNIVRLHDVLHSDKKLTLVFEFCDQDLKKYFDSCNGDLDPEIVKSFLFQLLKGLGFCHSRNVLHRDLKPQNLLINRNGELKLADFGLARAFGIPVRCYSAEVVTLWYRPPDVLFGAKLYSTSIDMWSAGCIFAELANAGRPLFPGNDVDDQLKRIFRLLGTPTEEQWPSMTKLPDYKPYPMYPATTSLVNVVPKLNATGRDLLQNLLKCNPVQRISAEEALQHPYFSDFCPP
Adenosine kinase, sequence (P55263 whole entry): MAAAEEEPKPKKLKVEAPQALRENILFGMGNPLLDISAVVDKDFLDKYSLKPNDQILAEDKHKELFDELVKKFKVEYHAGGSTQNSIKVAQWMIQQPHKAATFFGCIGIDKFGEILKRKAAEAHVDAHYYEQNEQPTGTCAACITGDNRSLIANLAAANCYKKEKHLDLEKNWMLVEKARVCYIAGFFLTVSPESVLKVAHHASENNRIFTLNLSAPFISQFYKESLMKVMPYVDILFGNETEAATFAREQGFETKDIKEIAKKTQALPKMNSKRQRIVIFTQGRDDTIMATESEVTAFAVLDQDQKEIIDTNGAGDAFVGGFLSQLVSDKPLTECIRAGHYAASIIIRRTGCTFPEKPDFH

SMILES | Kd (Adenosine kinase) | Kd [1] | Kd [2] | Kd [3] | Kd [4] | Kd [5] | Kd [6] | Kd [7] | Kd (LIM domain kinase 1) | Kd (LIM domain kinase 2) | Kd [8] | Kd [9] | Kd [10] | Kd [11] | Kd [12]
O=S(=O)(c1cccc2c(O)nccc12)N1CCCNCC1 [HYDROXYFASUDIL] | > 30 µM (inactive) | > 30 µM (inactive) | > 30 µM (inactive) | > 30 µM (inactive) | > 30 µM (inactive) | > 30 µM (inactive) | > 30 µM (inactive) | > 30 µM (inactive) | > 30 µM (inactive) | > 30 µM (inactive) | > 30 µM (inactive) | > 30 µM (inactive) | > 30 µM (inactive) | > 30 µM (inactive) | > 30 µM (inactive)
C#Cc1cccc(Nc2ncnc3cc4c(cc23)OCCOCCOCCO4)c1 [ICOTINIB] | > 30 µM (inactive) | > 30 µM (inactive) | 2.91 µM (active) | > 30 µM (inactive) | > 30 µM (inactive) | > 30 µM (inactive) | > 30 µM (inactive) | > 30 µM (inactive) | > 30 µM (inactive) | > 30 µM (inactive) | > 30 µM (inactive) | > 30 µM (inactive) | > 30 µM (inactive) | > 30 µM (inactive) | > 30 µM (inactive)
COc1cc2ncnc3c2cc1OCCCCCN(C)Cc1ccc(Br)cc1N3 [JNJ-26483327] | > 30 µM (inactive) | > 30 µM (inactive) | > 30 µM (inactive) | > 30 µM (inactive) | > 30 µM (inactive) | > 30 µM (inactive) | > 30 µM (inactive) | > 30 µM (inactive) | > 30 µM (inactive) | > 30 µM (inactive) | > 30 µM (inactive) | > 30 µM (inactive) | > 30 µM (inactive) | > 30 µM (inactive) | > 30 µM (inactive)
Cc1ccc(C(=O)Nc2ccc(Oc3cc4cnn(C)c4cc3-c3cn[nH]c3)c(F)c2)c(=O)n1-c1ccc(F)cc1 [MERESTINIB] | > 30 µM (inactive) | > 30 µM (inactive) | > 30 µM (inactive) | > 30 µM (inactive) | > 30 µM (inactive) | > 30 µM (inactive) | > 30 µM (inactive) | > 30 µM (inactive) | > 30 µM (inactive) | > 30 µM (inactive) | > 30 µM (inactive) | > 30 µM (inactive) | > 30 µM (inactive) | > 30 µM (inactive) | > 30 µM (inactive)
O=C(NOC[C@H](O)CO)c1ccc(F)c(F)c1Nc1ccc(I)cc1F [MIRDAMETINIB] | > 30 µM (inactive) | > 30 µM (inactive) | > 30 µM (inactive) | > 30 µM (inactive) | > 30 µM (inactive) | > 30 µM (inactive) | > 30 µM (inactive) | > 30 µM (inactive) | > 30 µM (inactive) | > 30 µM (inactive) | > 30 µM (inactive) | > 30 µM (inactive) | > 30 µM (inactive) | > 30 µM (inactive) | > 30 µM (inactive)
COc1cccc2cc(-c3nc([C@H]4CC[C@H](C(=O)O)CC4)n4ncnc(N)c34)[nH]c12 [OSI-027] | > 30 µM (inactive) | > 30 µM (inactive) | > 30 µM (inactive) | > 30 µM (inactive) | > 30 µM (inactive) | > 30 µM (inactive) | > 30 µM (inactive) | > 30 µM (inactive) | > 30 µM (inactive) | > 30 µM (inactive) | > 30 µM (inactive) | > 30 µM (inactive) | > 30 µM (inactive) | > 30 µM (inactive) | > 30 µM (inactive)
O=C(Nc1ccc(OC(F)(F)F)cc1)c1sccc1NCc1ccnc2ccccc12 [OSI-930] | > 30 µM (inactive) | > 30 µM (inactive) | > 30 µM (inactive) | > 30 µM (inactive) | > 30 µM (inactive) | > 30 µM (inactive) | > 30 µM (inactive) | > 30 µM (inactive) | > 30 µM (inactive) | > 30 µM (inactive) | > 30 µM (inactive) | > 30 µM (inactive) | > 30 µM (inactive) | > 30 µM (inactive) | > 30 µM (inactive)
C=CC(=O)Nc1cc(Nc2nccc(-c3cn(C)c4ccccc34)n2)c(OC)cc1N(C)CCN(C)C [OSIMERTINIB] | > 30 µM (inactive) | > 30 µM (inactive) | > 30 µM (inactive) | > 30 µM (inactive) | > 30 µM (inactive) | > 30 µM (inactive) | > 30 µM (inactive) | > 30 µM (inactive) | > 30 µM (inactive) | > 30 µM (inactive) | > 30 µM (inactive) | > 30 µM (inactive) | > 30 µM (inactive) | > 30 µM (inactive) | > 30 µM (inactive)
FC(F)(F)c1ccc(CNc2ccc(Cc3c[nH]c4ncc(Cl)cc34)cn2)cn1 [PEXIDARTINIB] | > 30 µM (inactive) | > 30 µM (inactive) | > 30 µM (inactive) | > 30 µM (inactive) | > 30 µM (inactive) | > 30 µM (inactive) | > 30 µM (inactive) | > 30 µM (inactive) | > 30 µM (inactive) | > 30 µM (inactive) | > 30 µM (inactive) | > 30 µM (inactive) | > 30 µM (inactive) | > 30 µM (inactive) | > 30 µM (inactive)
CC(C)CC(=O)Nc1[nH]nc2c1CN(C(=O)C1CCN(C)CC1)C2(C)C [PHA-793887] | > 30 µM (inactive) | > 30 µM (inactive) | > 30 µM (inactive) | > 30 µM (inactive) | 0.008 µM (active) | 0.135 µM (active) | > 30 µM (inactive) | 0.029 µM (active) | > 30 µM (inactive) | > 30 µM (inactive) | 0.864 µM (active) | > 30 µM (inactive) | > 30 µM (inactive) | > 30 µM (inactive) | > 30 µM (inactive)
O=C(NC[C@H](O)CO)c1ccncc1Nc1ccc(I)cc1F [PIMASERTIB] | > 30 µM (inactive) | > 30 µM (inactive) | > 30 µM (inactive) | > 30 µM (inactive) | > 30 µM (inactive) | > 30 µM (inactive) | > 30 µM (inactive) | > 30 µM (inactive) | > 30 µM (inactive) | > 30 µM (inactive) | > 30 µM (inactive) | > 30 µM (inactive) | > 30 µM (inactive) | > 30 µM (inactive) | > 30 µM (inactive)

Reference: ChEMBL document CHEMBL3991601, “The target landscape of clinical kinase drugs” (Science, 2017)
